Results: PubChem BioAssay (NCI)
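The compound was tested at five concentrations on cells cultured in 96-well plates, with a 48-hour exposure period. GI50 marks 50% less growth. TGI marks complete inhibition of growth.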

Assays:
Experiment in all cases: NCI-60 cell line screen, 48 h
SF-268 CNS = tested on: SF-268 CNS
HOP-62 NSCLC = tested on: HOP-62 NSCLC
ACHN renal = tested on: ACHN renal
HCC-2998 colon = tested on: HCC-2998 colon
MOLT-4 leukemia = tested on: MOLT-4 leukemia
UACC-62 melanoma = tested on: UACC-62 melanoma
SK-MEL-2 melanoma = tested on: SK-MEL-2 melanoma
COLO 205 colon = tested on: COLO 205 colon
HOP-92 NSCLC = tested on: HOP-92 NSCLC
SF-295 CNS = tested on: SF-295 CNS

SMILES	GI50 (SF-268 CNS) [µM]	TGI (SF-268 CNS) [µM]	GI50 (HOP-62 NSCLC) [µM]	TGI (HOP-62 NSCLC) [µM]	GI50 (ACHN renal) [µM]	GI50 (HCC-2998 colon) [µM]	TGI (HCC-2998 colon) [µM]	GI50 (MOLT-4 leukemia) [µM]	TGI (MOLT-4 leukemia) [µM]	GI50 (UACC-62 melanoma) [µM]	TGI (UACC-62 melanoma) [µM]	GI50 (SK-MEL-2 melanoma) [µM]	TGI (SK-MEL-2 melanoma) [µM]	GI50 (COLO 205 colon) [µM]	TGI (COLO 205 colon) [µM]	GI50 (HOP-92 NSCLC) [µM]	TGI (HOP-92 NSCLC) [µM]	GI50 (SF-295 CNS) [µM]	TGI (SF-295 CNS) [µM]	TGI (ACHN renal) [µM]
COc1cccc2c1C(=O)c1c(O)c3c(c(O)c1C2=O)C[C@@](O)(C(=O)COC(=O)c1cccnc1)C[C@@H]3OC1CC(N)C(O)C(C)O1 (some centres not stated)	0.155	1.53	0.124	1.28	0.117	0.454	3.5	0.0369	0.684	0.103	0.268	0.232	0.529	0.168	1.01	0.0859	0.737	0.148	2.29	–
CCc1nc2cc(/C=C/C(=O)NO)c(F)cc2c(=O)n1CCc1ccccc1	0.829	5.27	1.05	5.98	0.744	1.57	11.3	1.03	> 100	0.597	3.38	2.64	9.37	0.497	3.14	2.51	8.94	1.89	4.35	2.9
Nc1nc(N)c2ncn(Cc3c(Cl)cccc3Cl)c2n1	–	> 100	–	> 100	–	–	> 100	–	> 100	–	> 100	–	> 100	–	> 100	–	> 100	–	> 100	> 100
CC(C)(C)c1cc2c(OP(c3ccccc3)c3ccccc3)c(c1)Cc1cc(C(C)(C)C)cc(c1OP(c1ccccc1)c1ccccc1)Cc1cc(C(C)(C)C)cc(c1OP(c1ccccc1)c1ccccc1)Cc1cc(C(C)(C)C)cc(c1OP(c1ccccc1)c1ccccc1)C2	> 50	> 50	> 50	> 50	–	> 50	> 50	–	> 5	> 50	> 50	> 50	> 50	> 50	> 50	> 50	> 50	> 50	> 50	> 5
COC(=O)c1c(C(=O)OC)c(C(=O)OC)c(C(=O)OC)c1C(=O)OC	–	> 100	–	> 100	–	–	> 100	–	> 100	–	> 100	–	> 100	–	> 100	–	> 100	–	> 100	> 100
CC(C)C(OC(=O)c1cc(NC(=S)c2ccccc2)ccc1Cl)C(C)C	–	82	–	> 100	–	–	> 53.1	–	> 64.2	–	38.9	–	52.6	–	41.7	–	34.4	–	> 84.7	65.7
COc1cc2c3c(n(CCCn4cccn4)c(=O)c2cc1OC)-c1cc2c(cc1C3=O)OCO2	0.586	> 100	0.449	11.1	0.396	7.13	64	0.351	> 35.9	0.359	1.78	59.9	> 100	5.25	> 100	1.34	18.6	0.581	32	5.61
Cc1ccc2nc(NC(=O)CSC(=S)N3CCN(Cc4ccccc4)CC3)sc2c1	> 100	> 100	> 100	> 100	> 100	> 100	> 100	> 100	> 100	> 100	> 100	> 100	> 100	> 100	> 100	4.05	> 100	> 100	> 100	> 100
